Measurements: US20160046618A1, “Cyclopropyl Fused Thiazin-2-Amine Compounds as Beta-Secretase Inhibitors and Methods of Use” (AMGEN INC., priority 2014, published 2016)

Experiments:
[1] = biological target: Recombinant Cat D (Homo sapiens (Human), UniProt P07339); experiment: In vitro enzymatic Cathepsin D (Cat D) FRET assay; format: biochemical; conditions: read-out: IC50 IP (μM) CatD
In short: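 Human Cat D expressed in CHO cells was incubated for one hour in 0.05 M citrate pH 3.5, 5 mM CHAPS, 10% DMSO final, with 20 nM quenched FRET peptide substrate. Reactions were stopped with Tris buffer raising pH to neutrality. Cleavage was read as fluorescence at excitation 500 nm, emission 580 nm.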

[2] = biological target: human recombinant BACE2 (Homo sapiens (Human), UniProt Q9Y5Z0); experiment: In vitro enzymatic BACE2 FRET assay; format: biochemical; conditions: read-out: IC50 IP (μM) BACE2 enzyme
In short: (§1)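 Ni-NTA-purified recombinant protease incubated with compound; reaction started with 50 nM FRET peptide substrate (fluorophore/quencher flanking the BACE cleavage site) and run 1 h. Stopped with Tris buffer raising pH to neutral; fluorescence read at ex 488/em 590 nm.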

[3] = test system: Aβ40 in conditioned medium of cells stably expressing Amyloid Precursor Protein (APP); experiment: In vitro BACE-1 cell-based assay (Aβ40 sandwich ELISA); conditions: read-out: IC50 IP (μM) BACE1 cell
In short: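 APP-expressing cells treated 24 h at 37 °C with compound in 10-point dose response (top 100 μM or 10 μM, 0.1% DMSO final). Secreted Aβ40 in conditioned medium quantified by sandwich ELISA (pAb40 capture, biotinylated 6E10 detection, time-resolved europium fluorescence); IC50 from percent inhibition versus concentration.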

[4] = biological target: human recombinant BACE1 (Homo sapiens (Human), UniProt P56817); experiment: In vitro enzymatic BACE1 FRET assay; format: biochemical; conditions: read-out: IC50 IP (μM) BACE1 enzyme
In short: as §1

human recombinant BACE1, sequence (P56817 46-501): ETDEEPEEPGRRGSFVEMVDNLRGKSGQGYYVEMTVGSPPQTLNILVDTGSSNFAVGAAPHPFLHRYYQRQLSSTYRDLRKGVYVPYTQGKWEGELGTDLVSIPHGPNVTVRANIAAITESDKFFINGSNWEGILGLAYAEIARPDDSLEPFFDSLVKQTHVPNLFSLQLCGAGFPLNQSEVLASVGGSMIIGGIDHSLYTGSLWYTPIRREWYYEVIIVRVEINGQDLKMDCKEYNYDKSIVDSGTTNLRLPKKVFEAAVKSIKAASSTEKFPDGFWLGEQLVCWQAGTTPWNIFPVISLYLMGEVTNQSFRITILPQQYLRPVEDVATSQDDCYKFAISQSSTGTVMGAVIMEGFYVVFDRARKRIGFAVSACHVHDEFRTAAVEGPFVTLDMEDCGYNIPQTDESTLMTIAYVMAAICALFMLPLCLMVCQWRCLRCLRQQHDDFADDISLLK
Recombinant Cat D, sequence (P07339 65-412): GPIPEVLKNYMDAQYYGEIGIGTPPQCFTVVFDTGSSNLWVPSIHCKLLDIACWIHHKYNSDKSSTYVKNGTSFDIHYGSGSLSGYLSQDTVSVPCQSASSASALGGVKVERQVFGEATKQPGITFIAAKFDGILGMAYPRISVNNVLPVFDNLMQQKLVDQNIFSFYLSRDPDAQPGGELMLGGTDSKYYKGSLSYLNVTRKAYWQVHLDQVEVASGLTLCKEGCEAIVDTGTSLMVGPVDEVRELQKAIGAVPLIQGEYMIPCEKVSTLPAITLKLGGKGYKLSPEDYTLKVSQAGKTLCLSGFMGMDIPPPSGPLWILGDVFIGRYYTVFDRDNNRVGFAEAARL
human recombinant BACE2, sequence (Q9Y5Z0 63-518): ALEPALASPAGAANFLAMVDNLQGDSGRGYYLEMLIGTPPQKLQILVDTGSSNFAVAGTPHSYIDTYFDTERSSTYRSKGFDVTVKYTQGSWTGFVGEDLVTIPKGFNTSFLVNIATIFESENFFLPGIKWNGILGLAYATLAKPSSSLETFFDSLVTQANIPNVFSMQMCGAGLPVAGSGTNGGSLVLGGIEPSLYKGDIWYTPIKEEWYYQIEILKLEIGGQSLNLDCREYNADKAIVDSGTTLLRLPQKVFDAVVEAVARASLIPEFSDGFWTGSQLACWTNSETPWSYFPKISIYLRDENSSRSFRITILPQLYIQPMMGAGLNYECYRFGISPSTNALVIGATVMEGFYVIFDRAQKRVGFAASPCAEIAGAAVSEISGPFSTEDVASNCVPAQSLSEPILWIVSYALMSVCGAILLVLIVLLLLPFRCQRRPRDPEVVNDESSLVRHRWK

IC50 [1] [µM] | IC50 [2] [µM] | IC50 [3] [µM] | IC50 [4] [µM] | SMILES
1780 | 0.0108 | 0.0145 | 0.0219 | COC[C@]12C[C@H]1[C@@](C)(c1cc(Nc3ncnc4cc(Cl)cnc34)cnc1F)N=C(N)S2 [Example 844, (1S,5S,6S)-5-(5-((7-chloropyrido[3,2-d]pyrimidin-4-yl)amino)-2-fluoropyridin-3-yl)-1-(methoxymethyl)-5-methyl-2-thia-4-azabicyclo[4.1.0]hept-3-en-3-amine]
1710 | 0.0257 | 0.00473 | 0.0026 | C#CCOc1cnc(C(=O)Nc2cnc(F)c([C@@]3(C)N=C(N)S[C@@]4(COC)C[C@H]43)c2)c(C)n1 [Example 845, N-(5-((1S,5S,6S)-3-amino-1-(methoxymethyl)-5-methyl-2-thia-4-azabicyclo[4.1.0]hept-3-en-5-yl)-6-fluoro-3-pyridinyl)-3-methyl-5-(2-propyn-1-yloxy)-2-pyrazinecarboxamide]
> 400 | 0.0494 | 0.0111 | 0.0282 | COC[C@]12C[C@H]1[C@@](C)(c1cc(Nc3ncnc4cc(C#N)cnc34)cnc1F)N=C(N)S2 [Example 846, 4-((5-((1S,5S,6S)-3-amino-1-(methoxymethyl)-5-methyl-2-thia-4-azabicyclo[4.1.0]hept-3-en-5-yl)-6-fluoro-3-pyridinyl)amino)pyrido[3,2-d]pyrimidine-7-carbonitrile]
1910 | 0.00955 | 0.00675 | 0.0113 | COC[C@]12C[C@H]1[C@@](C)(c1cc(Nc3nccc4cc(C#N)cnc34)cnc1F)N=C(N)S2 [Example 847, 8-((5-((1S,5S,6S)-3-amino-1-(methoxymethyl)-5-methyl-2-thia-4-azabicyclo[4.1.0]hept-3-en-5-yl)-6-fluoro-3-pyridinyl)amino)-1,7-naphthyridine-3-carbonitrile]
773 | 0.0335 | 0.00134 | 0.00136 | C#CCOc1cnc2c(Nc3cnc(F)c([C@@]4(C)N=C(N)S[C@@]5(COC)C[C@H]54)c3)nccc2n1 [Example 848, N-(5-((1S,5S,6S)-3-amino-1-(methoxymethyl)-5-methyl-2-thia-4-azabicyclo[4.1.0]hept-3-en-5-yl)-6-fluoro-3-pyridinyl)-2-(2-propyn-1-yloxy)pyrido[3,4-b]pyrazin-5-amine]
1530 | 0.0463 | 0.0017 | 0.00343 | COC[C@]12C[C@H]1[C@@](C)(c1cc(Nc3nccc4nc(OCc5ncco5)cnc34)cnc1F)N=C(N)S2 [Example 849, N-(5-((1S,5S,6S)-3-amino-1-(methoxymethyl)-5-methyl-2-thia-4-azabicyclo[4.1.0]hept-3-en-5-yl)-6-fluoro-3-pyridinyl)-2-(1,3-oxazol-2-ylmethoxy)pyrido[3,4-b]pyrazin-5-amine]
1150 | 0.00886 | 0.00207 | 0.00121 | [2H]C([2H])([2H])OC[C@]12C[C@H]1[C@@](C)(c1cc(NC(=O)c3ncc(OCC#C)nc3C)cnc1F)N=C(N)S2 [Example 850, N-(5-((1S,5S,6S)-3-amino-5-methyl-1-(((~2~H_3_)methyloxy)methyl)-2-thia-4-azabicyclo[4.1.0]hept-3-en-5-yl)-6-fluoro-3-pyridinyl)-3-methyl-5-(2-propyn-1-yloxy)-2-pyrazinecarboxamide]
468 | 0.0184 | 0.000624 | 0.000574 | [2H]C([2H])([2H])OC[C@]12C[C@H]1[C@@](C)(c1cc(NC(=O)c3cnc(OCC#C)cn3)cnc1F)N=C(N)S2 [Example 851, N-(5-((1S,5S,6S)-3-amino-5-methyl-1-(((~2~H_3_)methyloxy)methyl)-2-thia-4-azabicyclo[4.1.0]hept-3-en-5-yl)-6-fluoro-3-pyridinyl)-5-(2-propyn-1-yloxy)-2-pyrazinecarboxamide]
1680 | 0.00758 | 0.0101 | 0.0127 | [2H]C([2H])([2H])OC[C@]12C[C@H]1[C@@](C)(c1cc(Nc3ncnc4cc(Cl)cnc34)cnc1F)N=C(N)S2 [Example 852, N-(5-((1S,5S,6S)-3-amino-5-methyl-1-(((~2~H_3_)methyloxy)methyl)-2-thia-4-azabicyclo[4.1.0]hept-3-en-5yl)-6-fluoro-3-pyridinyl)-7-chloropyrido[3,2-d]pyrimidin-4-amine]
791 | 0.0244 | 0.000961 | 0.000878 | [2H]C([2H])([2H])OC[C@]12C[C@H]1[C@@](C)(c1cc(Nc3nccc4nc(OCC#C)cnc34)cnc1F)N=C(N)S2 [Example 853, N-(5-((1S,5S,6S)-3-amino-5-methyl-1-(((~2~H_3_)methyloxy)methyl)-2-thia-4-azabicyclo[4.1.0]hept-3-en-5-yl)-6-fluoro-3-pyridinyl)-2-(2-propyn-1-yloxy)pyrido[3,4-b]pyrazin-5-amine]
1240 | 0.0383 | 0.00134 | 0.00144 | [2H]C([2H])([2H])OC[C@]12C[C@H]1[C@@](C)(c1cc(Nc3nccc4nc(OC([2H])([2H])C#C)cnc34)cnc1F)N=C(N)S2 [Example 854, N-(5-((1S,5S,6S)-3-amino-5-methyl-1-(((~2~H_3_)methyloxy)methyl)-2-thia-4-azabicyclo[4.1.0]hept-3-en-5-yl)-6-fluoro-3-pyridinyl)-2-((1,1-~2~H_2_)-2-propyn-1-yloxy)pyrido[3,4-b]pyrazin-5-amine]
> 400 | 0.0224 | 0.294 | 0.198 | COC(=O)c1cc(NC(=O)c2ccc(Cl)cn2)cc([C@@]2(C)N=C(N)S[C@@]3(C(=O)OC)C[C@H]32)c1F [Example 855, (1S,5S,6S)-methyl 3-amino-5-(5-(5-chloropicolinamido)-2-fluoro-3-(methoxycarbonyl)phenyl)-5-methyl-2-thia-4-azabicyclo[4.1.0]hept-3-ene-1-carboxylate]
116 | 0.657 | 0.249 | 0.071 | C#CCOc1cnc2c(Nc3cc(C(=O)OC)c(F)c([C@@]4(C)N=C(N)S[C@@]5(C(=O)OC)C[C@H]54)c3)nccc2n1 [Example 856, (1S,5S,6S)-methyl 3-amino-5-(2-fluoro-3-(methoxycarbonyl)-5-((2-(prop-2-yn-1-yloxy)pyrido[3,4-b]pyrazin-5-yl)amino)phenyl)-5-methyl-2-thia-4-azabicyclo[4.1.0]hept-3-ene-1-carboxylate]
2520 | 0.346 | 0.0156 | 0.0678 | C#CCOc1cnc2c(Nc3cc(C(=O)OC)c(F)c([C@@]4(C)N=C(N)S[C@@]5(CO)C[C@H]54)c3)nccc2n1 [Example 857, methyl 3-((1S,5S,6S)-3-amino-1-(hydroxymethyl)-5-methyl-2-thia-4-azabicyclo[4.1.0]hept-3-en-5-yl)-2-fluoro-5-((2-(prop-2-yn-1-yloxy)pyrido[3,4-b]pyrazin-5-yl)amino)benzoate]
> 400 | < 0.00203 | 0.000487 | 0.00085 | C[C@]1(c2cc(NC(=O)c3ccc(Cl)cn3)cc(CO)c2F)N=C(N)S[C@@]2(CO)C[C@H]21 [Example 858, N-(3-((1S,5S,6S)-3-amino-1-(hydroxymethyl)-5-methyl-2-thia-4-azabicyclo[4.1.0]hept-3-en-5-yl)-4-fluoro-5-(hydroxymethyl)phenyl)-5-chloropicolinamide]
590 | 0.0194 | 0.000762 | 0.000799 | C#CCOc1cnc(C(=O)Nc2cnc(F)c([C@@]3(C)N=C(N)S[C@@]4(COC)C[C@H]43)c2)cn1 [Example 859, N-(5-((1S,5S,6S)-3-amino-1-(methoxymethyl)-5-methyl-2-thia-4-azabicyclo[4.1.0]hept-3-en-5-yl)-6-fluoro-3-pyridinyl)-5-(2-propyn-1-yloxy)-2-pyrazinecarboxamide]
1010 | 0.0286 | 0.00853 | 0.00276 | Cc1nc(OCc2ncco2)cnc1C(=O)Nc1cc(F)c(F)c([C@@]2(C)N=C(N)S[C@@]3(C(F)F)C[C@@H]23)c1 [Example 860, N-(3-((1S,5S,6S)-3-amino-1-(difluoromethyl)-5-methyl-2-thia-4-azabicyclo[4.1.0]hept-3-en-5-yl)-4,5-difluorophenyl)-3-methyl-5-(1,3-oxazol-2-ylmethoxy)-2-pyrazinecarboxamide]
146 | 0.0176 | 0.00754 | 0.000889 | C#CCOc1cnc(C(=O)Nc2cc(F)c(F)c([C@@]3(C)N=C(N)S[C@@]4(C(F)F)C[C@@H]34)c2)c(C)n1 [Example 861, N-(3-((1S,5S,6S)-3-amino-1-(difluoromethyl)-5-methyl-2-thia-4-azabicyclo[4.1.0]hept-3-en-5-yl)-4,5-difluorophenyl)-3-methyl-5-(2-propyn-1-yloxy)-2-pyrazinecarboxamide]
